Laboratory results taken from the supplement of paper PMC10307832.

Columns and labels:
Assay in all cases: relative viability (nuclei count vs DMSO), 5 days (fraction); higher = more cells survive
QS11 + Pemetrexed = compound: C1CC2=C(C1)C=C(C=C2)OC3=NC(=C4C(=N3)N(C=N4)CC5=CC=C(C=C5)C6=CC=CC=C6)N[C@@H](CC7=CC=CC=C7)CO [QS11] + Nc1nc2[nH]cc(CCc3ccc(C(=O)N[C@@H](CCC(=O)O)C(=O)O)cc3)c2c(=O)[nH]1 [Pemetrexed] (partner 0.2 µM)
Method in brief: (§1)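 One day after seeding in 1536-well plates, lung cancer cell lines were dosed by pin tool. Dosing was either single-drug or a fixed anchor-drug dose plus five library-drug doses (not always all listed) in √10 steps. After 5 days, nuclei were stained in one fix-and-stain step and counted on 4× images, and relative viability is the nuclei count of treated wells over that of vehicle wells, given as the median of duplicate plates.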

AZ628 + AZD7762 = compound: CC1=C(C=C(C=C1)NC(=O)C2=CC(=CC=C2)C(C)(C)C#N)NC3=CC4=C(C=C3)N=CN(C4=O)C [AZ628] + NC(=O)Nc1cc(-c2cccc(F)c2)sc1C(=O)N[C@H]1CCCNC1 [AZD7762] (partner 0.2 µM)
Method in brief: as §1

Darinaparsin + Foretinib = compound: C[As](C)SC[C@H](NC(=O)CC[C@H](N)C(=O)O)C(=O)NCC(=O)O [Darinaparsin] + COc1cc2c(Oc3ccc(NC(=O)C4(C(=O)Nc5ccc(F)cc5)CC4)cc3F)ccnc2cc1OCCCN1CCOCC1 [Foretinib] (partner 0.25 µM)
Method in brief: as §1

Darinaparsin + Dasatinib = compound: C[As](C)SC[C@H](NC(=O)CC[C@H](N)C(=O)O)C(=O)NCC(=O)O [Darinaparsin] + Cc1nc(Nc2ncc(C(=O)Nc3c(C)cccc3Cl)s2)cc(N2CCN(CCO)CC2)n1 [Dasatinib] (partner 0.075 µM)
Method in brief: as §1

EMC-BAC-2 was tested, and the relative viability (QS11 + Pemetrexed; first compound 0.08 µM) was 0.461, the relative viability (QS11 + Pemetrexed; first compound 0.253 µM) was 0.463 and the relative viability (QS11 + Pemetrexed; first compound 0.8 µM) was 0.409. For the same cell line, the relative viability (QS11 + Pemetrexed; first compound 2.53 µM) was 0.594, the relative viability (QS11 + Pemetrexed; first compound 8 µM) was 0.445 and the relative viability (AZ628 + AZD7762; first compound 0.08 µM) was 1.16. It also gave a relative viability (AZ628 + AZD7762; first compound 0.253 µM) of 1.09, a relative viability (AZ628 + AZD7762; first compound 0.8 µM) of 1.18 and a relative viability (AZ628 + AZD7762; first compound 2.53 µM) of 1.13. It also gave a relative viability (AZ628 + AZD7762; first compound 8 µM) of 1.28, a relative viability (Darinaparsin + Foretinib; first compound 0.08 µM) of 1.08 and a relative viability (Darinaparsin + Foretinib; first compound 0.8 µM) of 0.958. For the same cell line, the relative viability (Darinaparsin + Foretinib; first compound 2.53 µM) was 1.01, the relative viability (Darinaparsin + Foretinib; first compound 8 µM) was 1.16 and the relative viability (Darinaparsin + Dasatinib; first compound 0.08 µM) was 0.34. For the same cell line, the relative viability (Darinaparsin + Dasatinib; first compound 0.8 µM) was 0.368, the relative viability (Darinaparsin + Dasatinib; first compound 2.53 µM) was 0.302 and the relative viability (Darinaparsin + Dasatinib; first compound 8 µM) was 0.35.

With H3255 the relative viability (QS11 + Pemetrexed; first compound 0.08 µM) was 0.578, the relative viability (QS11 + Pemetrexed; first compound 0.253 µM) was 0.632 and the relative viability (QS11 + Pemetrexed; first compound 0.8 µM) was 0.532. It also gave a relative viability (QS11 + Pemetrexed; first compound 2.53 µM) of 0.562, a relative viability (QS11 + Pemetrexed; first compound 8 µM) of 0.53 and a relative viability (AZ628 + AZD7762; first compound 0.08 µM) of 0.852. The relative viability (AZ628 + AZD7762; first compound 0.253 µM) was 0.726, the relative viability (AZ628 + AZD7762; first compound 0.8 µM) was 0.806 and the relative viability (AZ628 + AZD7762; first compound 2.53 µM) was 1.01. It also gave a relative viability (AZ628 + AZD7762; first compound 8 µM) of 0.684, a relative viability (Darinaparsin + Foretinib; first compound 0.08 µM) of 0.781 and a relative viability (Darinaparsin + Foretinib; first compound 0.8 µM) of 0.863. For the same cell line, the relative viability (Darinaparsin + Foretinib; first compound 2.53 µM) was 0.913, the relative viability (Darinaparsin + Foretinib; first compound 8 µM) was 0.854 and the relative viability (Darinaparsin + Dasatinib; first compound 0.08 µM) was 0.355. It also gave a relative viability (Darinaparsin + Dasatinib; first compound 0.8 µM) of 0.346, a relative viability (Darinaparsin + Dasatinib; first compound 2.53 µM) of 0.317 and a relative viability (Darinaparsin + Dasatinib; first compound 8 µM) of 0.338.

NCI-H838 showed a relative viability (QS11 + Pemetrexed; first compound 0.08 µM) of 0.245, a relative viability (QS11 + Pemetrexed; first compound 0.253 µM) of 0.237 and a relative viability (QS11 + Pemetrexed; first compound 0.8 µM) of 0.236. For the same cell line, the relative viability (QS11 + Pemetrexed; first compound 2.53 µM) was 0.237, the relative viability (QS11 + Pemetrexed; first compound 8 µM) was 0.24 and the relative viability (AZ628 + AZD7762; first compound 0.08 µM) was 0.957. For the same cell line, the relative viability (AZ628 + AZD7762; first compound 0.253 µM) was 0.884, the relative viability (AZ628 + AZD7762; first compound 0.8 µM) was 0.915 and the relative viability (AZ628 + AZD7762; first compound 2.53 µM) was 0.95. The relative viability (AZ628 + AZD7762; first compound 8 µM) was 0.922, the relative viability (Darinaparsin + Foretinib; first compound 0.08 µM) was 1.19 and the relative viability (Darinaparsin + Foretinib; first compound 0.8 µM) was 1.03. For the same cell line, the relative viability (Darinaparsin + Foretinib; first compound 2.53 µM) was 0.856, the relative viability (Darinaparsin + Foretinib; first compound 8 µM) was 1.23 and the relative viability (Darinaparsin + Dasatinib; first compound 0.08 µM) was 0.301. It also gave a relative viability (Darinaparsin + Dasatinib; first compound 0.8 µM) of 0.286, a relative viability (Darinaparsin + Dasatinib; first compound 2.53 µM) of 0.271 and a relative viability (Darinaparsin + Dasatinib; first compound 8 µM) of 0.338.

Cell Line HCC-15 has a relative viability (QS11 + Pemetrexed; first compound 0.08 µM) of 0.213, a relative viability (QS11 + Pemetrexed; first compound 0.253 µM) of 0.232 and a relative viability (QS11 + Pemetrexed; first compound 0.8 µM) of 0.223. The relative viability (QS11 + Pemetrexed; first compound 2.53 µM) was 0.274, the relative viability (QS11 + Pemetrexed; first compound 8 µM) was 0.227 and the relative viability (AZ628 + AZD7762; first compound 0.08 µM) was 1.16. For the same cell line, the relative viability (AZ628 + AZD7762; first compound 0.253 µM) was 1.07, the relative viability (AZ628 + AZD7762; first compound 0.8 µM) was 1.08 and the relative viability (AZ628 + AZD7762; first compound 2.53 µM) was 1.01. For the same cell line, the relative viability (AZ628 + AZD7762; first compound 8 µM) was 0.894, the relative viability (Darinaparsin + Foretinib; first compound 0.08 µM) was 1.31 and the relative viability (Darinaparsin + Foretinib; first compound 0.8 µM) was 1. The relative viability (Darinaparsin + Foretinib; first compound 2.53 µM) was 0.98, the relative viability (Darinaparsin + Foretinib; first compound 8 µM) was 1.26 and the relative viability (Darinaparsin + Dasatinib; first compound 0.08 µM) was 0.675. It also gave a relative viability (Darinaparsin + Dasatinib; first compound 0.8 µM) of 0.562, a relative viability (Darinaparsin + Dasatinib; first compound 2.53 µM) of 0.577 and a relative viability (Darinaparsin + Dasatinib; first compound 8 µM) of 0.628.
